Results from US12234499B2, “Compositions, methods, systems and/or kits for detecting antimicrobial resistance in bacteria” (priority 2016, dated 2025).

What was measured:
Assay in all cases: Growth of enteric bacteria in the presence of TEM (FIG. 1)
Assay type in all cases: cell-based
[1] = system: enteric bacteria expressing Class B carbapenemase
Description: (§1) Non-limiting embodiments of detection tests for enteric and non-fermenting bacteria, with various concentration ranges of one or more antibiotics, and various concentration ranges for one or more inhibitors are shown in FIG. 1-FIG. 24 and FIG. 31. These figures illustrate the concentration of the antibiotic being tested (in μg/ml) along the x-axis (not every concentration is tested in every figure), and the amount of growth of bacteria in the sample in the y-axis. The boxes illustrate the median, interquartile range, non-outlier minimum and maximum; with asterisks representing single outliers. Each figure has a panel for Class A, Class B, and Class D producing bacteria, as well as a panel for non-carbapenemase producing bacteria (NEG). In some embodiments, the detection tests described herein are not performed by imaging a change in cell morphology.
(§2) By way of example, FIG. 1 illustrates a test of various enteric bacteria grown in the presence of several concentrations of TEM.
(§3) In some embodiments, the detection tests can comprise a plurality of wells comprising enteric bacteria and TEM over a range of concentrations of about 12 μg/ml to about 512 μg/ml (FIG. 1).

[2] = system: non-carbapenemase producing (NEG) enteric bacteria; settings: nearly all NEG enteric bacteria
Description: as §1, §2, §3

[3] = system: enteric bacteria expressing Class A carbapenemase; settings: Class A enteric bacterial strains
Description: as §1, §2, §3

[4] = system: enteric bacteria expressing Class D carbapenemase
Description: as §1, §2, §3

CO[C@@]1(NC(=O)C(C(=O)O)c2ccsc2)C(=O)N2[C@@H](C(=O)O)C(C)(C)S[C@@H]21 (stereo partly drawn) [TEM, disodium 6beta-(2-carboxy-2-thien-3-ylacetamido)-6alpha-methoxypenicillanate]
concentration at which bacteria begin to show sensitivity ([1]; Class B enteric bacteria, decrease in the average growth line): 48 µg/mL | concentration at which growth of most strains is inhibited ([1]; Class B enterics): 384 µg/mL | sensitivity to TEM [2]: sensitive to lowest concentration | concentration at which nearly all strains tested are inhibited [3]: 24 µg/mL | concentration reached before growth is affected ([4]; Class D enteric bacteria unaffected until this concentration): 192 µg/mL | MIC ([4]; bacteria expressing Class D, read-out: TEM concentration at which bacteria are sensitive (elevated MIC)): ≥ 128 mg/L
